The subject of data set [1] is PC-3 (prostate cancer). Description: Test for inhibition of tumor cell growth (SRB), PC-3. The following applies: 48 hours, SRB staining; for GI50: Homo sapiens, read-out: GI50 PC-3 (prostate ancer). The data set is classed as cell-based, Human. An outline of the steps: (§1)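 Cells seeded in RPMI 1640 with 5% FBS, exposed to compound (final […], units as printed) for 48 hours at 37° C with 5% CO2, including a time-zero plate. TCA-fixed, SRB-stained, absorbance at 540 nm as percent of control; GI50 is the 50% growth-inhibition concentration.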
(In general: Sulforhodamine B stains cellular protein and so reports cell mass.)

Data set [2] has as its system MBA-MB-231 (breast cancer). Description: Test for inhibition of tumor cell growth (SRB), MBA-MB-231. The data set is classed as cell-based, Human. The following applies: 48 hours, SRB staining; for GI50: Homo sapiens. An outline of the steps:
as §1

The test system of data set [3] is ACHN (kidney cancer). The data set can be described thus: Test for inhibition of tumor cell growth (SRB), ACHN. The data set is classed as cell-based, Human. The following applies: 48 hours, SRB staining; for GI50: Homo sapiens, ACHN. A digest of the protocol:
as §1

For data set [4], the system named is NUGC-3 (gastric cancer). Description: Test for inhibition of tumor cell growth (SRB), NUGC-3. The class given is cell-based, Human. The following applies: 48 hours, SRB staining; for GI50: Homo sapiens, NUGC-3. A digest of the protocol: as §1
For data set [5], the system named is human prostate cancer cell line PC-3. Description: Test for tumor growth inhibition in animal model (PC-3 xenograft). The data set is classed as in vivo. The following applies: 2 mg/kg Q2D, 10 times, intraperitoneal. Here is the method: Female S.P.F BALB/c nude mice (7-week-old) were grafted with 3×10^7 cells/□ of human prostate cancer cell line PC-3, and then intraperitoneally administered with the compound prepared in Example 55 at a daily dosage of 30 mg/kg 20 times. A positive control group was intraperitoneally administered with adriamycin at a daily dosage of 2 mg/kg 10 times once every two days.
The changes in their body weight are shown in FIG. 1, the changes in tumor size are shown in FIG. 2, and the tumor weights measured on the final day (day 21) are shown in FIG. 3.

In general, GI50 refers to the concentration that inhibits growth by half. As to `CCCCCCCCCS(=O)(=O)N1CC[N+](C)(C)CC1` [Example 102, 1,1-dimethyl-4-(nonane-1-sulfonyl)piperazin-1-ium iodide], the GI50 in data set [1], in data set [2], in data set [3] and in data set [4] was greater than 10 µg/mL each time.
In the case of `CCCCCCCCCS(=O)(=O)N1CC[N+](C)(Cc2ccccc2)CC1` [Example 103, 1-benzyl-1-methyl-4-(nonane-1-sulfonyl)piperazin-1-ium bromide], the GI50 in data set [1] was 1.25 µg/mL; in data set [2], greater than 10 µg/mL; in data set [3] it was greater than 10 µg/mL; in data set [4], 3.45 µg/mL.
Turning to `CCCCCCCCCS(=O)(=O)N1CC[N+](C)(Cc2ccc(F)cc2)CC1` [Example 104, 1-(4-fluorobenzyl)-1-methyl-4-(nonane-1-sulfonyl)piperazin-1-ium bromide], the GI50 in data set [1] was 3.45 µg/mL; in data set [2], greater than 10 µg/mL; in data set [3] it was greater than 10 µg/mL; in data set [4] it was greater than 10 µg/mL.
In the case of `CCCCCCCCCCS(=O)(=O)N1CC[N+](C)(Cc2cccc(C)c2)CC1` [Example 106, 4-(decane-1-sulfonyl)-1-methyl-1-(3-methylbenzyl)piperazin-1-ium bromide], the GI50 in data set [1] was 0.61 µg/mL; in data set [2], 3.56 µg/mL; in data set [3], 4.13 µg/mL; in data set [4], 1.6 µg/mL.
With `CCCCCCCCCCS(=O)(=O)N1CC[N+](C)(Cc2ccc(C)cc2)CC1` [Example 107, 4-(decane-1-sulfonyl)-1-methyl-1-(4-methylbenzyl)piperazin-1-ium bromide], the GI50 was 1.05 µg/mL in data set [1], greater than 10 µg/mL in data set [2], greater than 10 µg/mL in data set [3] and 2.72 µg/mL in data set [4].
On to `CCCCCCCCCCCCS(=O)(=O)N1CC[N+](C)(Cc2cccc(C)c2)CC1` [Example 108, 4-(dodecane-1-sulfonyl)-1-methyl-1-(3-methylbenzyl)piperazin-1-ium bromide], for which the concentration for 50% growth inhibition (GI50) is 0.45 µg/mL in data set [1], 1.19 µg/mL in data set [2], 1.42 µg/mL in data set [3] and 0.65 µg/mL in data set [4].
As for `C=CC[N+]1(C)CCN(S(=O)(=O)CCCCCCCCCCC)CC1` [Example 112, 1-allyl-1-methyl-4-(undecane-1-sulfonyl)piperazin-1-ium bromide], the GI50 in data set [1] is 0.43 µg/mL; in data set [2], 1.75 µg/mL; in data set [3], 1.69 µg/mL; in data set [4], 1.75 µg/mL.
As to `CCCCCCCCCCCCCCS(=O)(=O)N1CC[N+](CC)(Cc2ccccc2)CC1` [Example 113, 1-benzyl-1-ethyl-4-(tetradecane-1-sulfonyl)piperazin-1-ium bromide], the GI50 is 0.41 µg/mL in data set [1], 1.23 µg/mL in data set [2], 1.05 µg/mL in data set [3] and 1.22 µg/mL in data set [4].
As to `CCCCCCCCCCCCCCCCCCS(=O)(=O)N1CC[N+](CC)(Cc2ccc(C(C)(C)C)cc2)CC1` [Example 114, 1-(4-t-butylbenzyl)-1-ethyl-4-(octadecane-1-sulfonyl)piperazin-1-ium bromide], the GI50 in data set [1] was found to be 2.01 µg/mL; in data set [2], 2.24 µg/mL; in data set [3], 2.32 µg/mL; in data set [4], 3.16 µg/mL.
As for `CCCCCCCCCCCCCCCCCCS(=O)(=O)N1CC[N+](C)(Cc2ccccc2)CC1` [Example 115, 1-benzyl-1-methyl-4-(octadecane-1-sulfonyl)piperazin-1-ium bromide], the GI50 worked out at 0.48 µg/mL in data set [1], 0.91 µg/mL in data set [2], 2.01 µg/mL in data set [3] and 1.07 µg/mL in data set [4].
Taken in the same sequence, the figures for `CCCCCCCCCCCCCCCC(=O)N1CCC[N+](C)(CC)CC1` (stereo not drawn) [Example 116, 1-ethyl-1-methyl-4-palmitoyl-1,4-diazepan-1-ium iodide] were 0.36 µg/mL, 0.59 µg/mL, 0.29 µg/mL and 0.25 µg/mL.
In the same order, the values of `CCCCCCCCCCCC(=O)N1CCC[N+](C)(C)CC1` [Example 117, 4-dodecanoyl-1,1-dimethyl-1,4-diazepan-1-ium iodide] are 0.5 µg/mL, 2.68 µg/mL, 1.07 µg/mL and 0.6 µg/mL.
Consider `C=CC[N+]1(C)CCCN(C(=O)CCCCCCCCCCC)CC1` (stereo not drawn) [Example 118, 1-allyl-4-dodecanoyl-1-methyl-1,4-diazepan-1-ium bromide], for which the GI50 was 0.78 µg/mL in data set [1], 3.84 µg/mL in data set [2], 2.18 µg/mL in data set [3] and 0.87 µg/mL in data set [4].
Regarding `CCCCCCCCCCCC(=O)N1CCC[N+](C)(Cc2ccc(OC)cc2)CC1` (stereo not drawn) [Example 119, 4-dodecanoyl-1-(4-methoxybenzyl)-1-methyl-1,4-diazepan-1-ium chloride], the GI50 in data set [1] stood at 0.57 µg/mL; in data set [2], 2.48 µg/mL; in data set [3], 1.48 µg/mL; in data set [4], 0.36 µg/mL.
`C=CC[N+]1(C)CCCN(C(=O)CCCCCCCCCCCCCCC)CC1` (stereo not drawn) [Example 120, 1-allyl-1-methyl-4-palmitoyl-1,4-diazepan-1-ium bromide]: the GI50 in data set [1] worked out at 0.75 µg/mL; in data set [2] it was 1.44 µg/mL; in data set [3] it was 0.74 µg/mL; in data set [4] it was 0.2 µg/mL.
As for `CCCCCCCCCCCCCCCC(=O)N1CCC[N+](C)(Cc2ccc(F)cc2)CC1.[Br-]` (stereo not drawn) [Example 121, 1-(4-fluorobenzyl)-1-methyl-4-palmitoyl-1,4-diazepan-1-him bromide], the “GI50 PC-3 (prostate ancer)” value in data set [1] worked out at 0.46 µg/mL. For the same compound, the “GI50 MBA-MB-231 (breast cancer)” value in data set [2] stood at 0.83 µg/mL. Moreover, the “GI50 ACHN (kidney cancer)” value in data set [3] was 1.09 µg/mL. The “GI50 NUGC-3 (gastric cancer)” value in data set [4] was determined as 0.63 µg/mL.
Regarding `CCCCCCCCCCCCCCCC(=O)N1CCC[N+](C)(C)CC1` [Example 122, 4-hexadecanoyl-1,1-dimethyl-1,4-diazepan-1-ium iodide], the GI50 in data set [1] worked out at 0.4 µg/mL; in data set [2] it was 0.94 µg/mL; in data set [3], 0.4 µg/mL; in data set [4], 0.21 µg/mL.
With `CCCCCCCCCCCCCC(=O)N1CCC[N+](C)(C)CC1` [Example 123, 1,1-dimethyl-4-tetradecanoyl-1,4-diazepan-1-ium iodide], the GI50 was 0.36 µg/mL in data set [1], 0.98 µg/mL in data set [2], 0.49 µg/mL in data set [3] and 0.08 µg/mL in data set [4].
In the same order, the values of `CCCCCCCCCCCCCC(=O)N1CCC[N+](C)(Cc2ccccc2)CC1` (stereo not drawn) [Example 124, 1-benzyl-1-methyl-4-tetradecanoyl-1,4-diazepan-1-ium bromide] are 0.45 µg/mL, 1.16 µg/mL, 1 µg/mL and 0.31 µg/mL.
As for `CCCCCCCCCCCCCCCC(=O)N1CCC[N+](C)(Cc2ccccc2)CC1` (stereo not drawn) [Example 125, 1-benzyl-1-methyl-4-palmitoyl-1,4-diazepan-1-ium bromide], the GI50 in data set [1] came out at 0.35 µg/mL; in data set [2], 0.86 µg/mL; in data set [3], 0.8 µg/mL; in data set [4], 0.53 µg/mL.
`C=CC[N+]1(C)CCCN(C(=O)CCCCCCCCCCCCC)CC1` (stereo not drawn) [Example 127, 1-allyl-1-methyl-4-tetradecanoyl-1,4-diazepan-1-ium bromide]: the GI50 in data set [1] was determined as 0.18 µg/mL; in data set [2], 0.45 µg/mL; in data set [3], 0.44 µg/mL; in data set [4], 0.26 µg/mL.
Take `CCCCCCCCCCCCCC(=O)N1CCC[N+](C)(Cc2cccc([N+](=O)[O-])c2)CC1` (stereo not drawn) [Example 128, 1-methyl-1-(3-nitrobenzyl)-4-tetradecanoyl-1,4-diazepan-1-ium bromide]: the GI50 in data set [1] turned out to be 0.18 µg/mL; in data set [2] it was 0.71 µg/mL; in data set [3], 0.82 µg/mL; in data set [4] it was 0.46 µg/mL.
On to `CCCCCCCCCCCCCCCCCC(=O)N1CCC[N+](C)(C)CC1` [Example 129, 1,1-dimethyl-4-stearoyl-1,4-diazepan-1-ium iodide], for which the GI50 in data set [1] was found to be 0.24 µg/mL; in data set [2], 0.67 µg/mL; in data set [3] it was 0.57 µg/mL; in data set [4], 0.26 µg/mL.
Taken in the same sequence, the figures for `CCCCCCCCCCCCCC(=O)N1CCC[N+](C)(Cc2ccc(F)cc2)CC1` (stereo not drawn) [Example 133, 1-(4-fluorobenzyl)-1-methyl-4-tetradecanoyl-1,4-diazepan-1-ium bromide] were 0.45 µg/mL, 1.48 µg/mL, 1.1 µg/mL and 0.94 µg/mL.
In the case of `COc1cccc2c1C(=O)c1c(O)c3c(c(O)c1C2=O)C[C@@](O)(C(=O)CO)C[C@@H]3O[C@H]1C[C@H](N)[C@H](O)[C@H](C)O1` [adriamycin], in data set [5], the deaths entry is “four”. In addition, in data set [5] (final day (day 21), p<0.01), the “effect of inhibiting tumor growth” value is reported as 74.4%. The “reduction of tumor weight” value in data set [5] (final day (day 21), p<0.05) stood at 69.8%.
